{"source": "patent US6573296B2", "about": "“Therapeutic quassinoid preparations with antineoplastic, antiviral, and herbistatic activity” (priority 1997, dated 2003)", "key": {"NADH oxidase [1]": {"tested_on": "NADH oxidase", "test": "NADH oxidase activity of soybean hypocotyl plasma membrane vesicles", "format": "biochemical", "details": "plant soybean hypocotyl tissue, FIG. 11"}, "Tomato plants": {"tested_on": "Tomato plants", "test": "growth of plants in peat after treatment", "format": "in vivo", "procedure": "Tomato plants about 3.5 cm high at the time of treatment were grown in peat in a flat of 1.5 inch diameter compartments and were treated with either aqueous simalikalactone (solution QD-1) or aqueous glaucarubolone (solution QD-2) containing 0.1% Triton X-100. The final volume/plant was 10 μ1 for the aqueous solution and 200 µl of the aqueous solution containing Triton X-100. […] With the aqueous treatment, plants also were inhibited but not as markedly as with detergent."}, "Sorghum (DeKalb 18)": {"tested_on": "Sorghum (DeKalb 18)", "test": "growth of plants in soil after foliar application", "format": "in vivo", "details": "twenty days after treatment, 10 μl of 1:1000/half pot; control plants 16 cm", "procedure": "(§1) To evaluate the growth phenotype of a set of plants, a 1 mg concentration of 100 Mm (solution QD-2). This solution was diluted serially with water with or without Triton X-100, ethanol or DMSO and used directly for measurement of effects on seed germination or applied using a microliter syringe to foliage to evaluate growth effects on plants.\nSorghum (DeKalb 18) plants growing in soil were treated as for Arabadopsis thaliani above after 6 days of germination when the plants were about 5 cm high (as the leaf emerged from the coleoptile sheath). Growth was retarded. Twenty days after treatment, control plants were 16 cm high and treated plants were 12 cm high. The application rate was 10 µl of 1:1000/half pot=2.5×10^−3 oz/A."}, "[2]": {"tested_on": "cabbage, radish, carrot, tomato and sorghum seeds", "test": "seed germination", "format": "in vivo", "procedure": "as §1\nWith seed germination, the compound was evaluated against five species: cabbage (Early Jersey Wakefield), radish (Scarlet Turnip White Tipped), carrot (Danvers Half Long), tomato (Rutgers) and sorghum (DeKalb 18). With water dilutions, seed germination of all species was inhibited at 10 μM (an aqueous dilution of 10 μl of 100 Mm 1:1000 in 100 μl of water) (Final DMSO concentration of 1:10,000=0.01%). Germination of tomato was inhibited at 10μ1/100 µl of an aqueous dilution of 1:10,000=1 μM final concentration."}, "[3]": {"tested_on": "leukemia and solid tumor cells", "test": "in vitro differential cytotoxicity, solid tumor versus leukemia", "format": "cell-based", "details": "solid tumor versus leukemia zones"}, "[4]": {"tested_on": "colon adenocarcinoma #38 [C38]", "test": "in vivo chemotherapy of SC transplanted tumor", "design": "species or system mice", "text": "(§2) Mice. Inbreds mice used were C57B1/6, C3H/He, Balb/c, and DBA/2; hybrids were: B6D2F1 (C57B1/6 females×DBA/2 males), and CD2F1 (Balb/c females×DBA/2 males). All mice were obtained from the Frederick Cancer Research Facility, Frederick, Md.\n(§3) Tumors were maintained in the mouse strain of origin and were transplanted into either an appropriate F1 hybrid or the strain of origin for therapy trials. All mice were over 17 g at the start of therapy; the range of individual body weights in each experiment was within 2 g. The mice were supplied food and water ad libitum.\n(§4) Antitumor Agents. The compound easily dissolved in the diluent which consisted of 3% [V/V (100%-Pure)] Ethanol, 1% (V/V) polyoxyethylanesorbitan monopalmitate (P.O.E.40) and 96% sterile distilled water. The primary route of administration was intravenous (IV).\n(§5) […] Chemotherapy. The methods of protocol design, tumor transplantation, drug treatment, endpoint determination, definition of terms, toxicity evaluation, data analysis, quantification of tumor cell kill, and the biologic significance of the drug treatment results with transplantable tumors have been presented. The following is a brief summary of those methods as they apply to the work described.\n(§6) The animals necessary to begin an experiment were pooled, implanted bilaterally SC on day 0 with 30 to 60 mg tumor fragments using a 12 gauge trocar, and again pooled before randomization to the various treatment and control group. Chemotherapy was either started within 3 days after tumor implantation while the number of cells per mouse was relatively small (10^7 to 10^8 cells), or allowed to grow to palpation (about 3×10^8 cells) in a more advanced stage trial.\n(§7) Tumors were measured with a caliper either once or twice weekly (as needed) until either tumors exceeded 1500 mg or cure was. assured. Tumor weights were estimated from two-dimensional measurements:\n(§8) Tumor Weight (mg)=(a×b^2)/2, where a and b are the tumor length and width (mm) respectively.\n(§9) Tumor growth delay. (T-C value), where T is the median time (in days) required for the treatment group tumors to reach a predetermined size, and C is the median time (in days) for the control group tumors to reach the same size. Tumor-free survivors were excluded from these calculations (cures were tabulated separately).\n(§10) Calculation of tumor cell kill. For SC growing tumors, the log10 cell kill was calculated from the following formula: [formula]\n(§11) Where T-C is the tumor growth delay (in days) as described above and Td is the tumor volume doubling time (in days), the latter estimated from the best fit straight line from a log-linear growth plot of the control-group tumors in exponential growth (500 to 1500 mg range). The conversion of the T-C values of log10 cell kill is possible because the Td for tumors regrowing post-treatment approximated the Td values of the tumors in untreated control mice.\n(§12) Determination of activity by tumor growth inhibition (T/C value). Measurements were carried out simultaneously in both the treatment and control groups. When the control group tumors reached approximately 750-1500 mg in size (median of group), the median tumor weight of each group was determined (including zeros)."}, "[5]": {"test": "in vivo chemotherapy of SC transplanted tumor", "design": "species or system mice", "details": "mouse, in vivo; C38; IV; days: Glaucarubinone 3,5-10, Holacanthone 3-12, Glaucarubolone 3-6, Chaparrinone 3-9; read-out: MTD Total Dose", "text": "as §2, §3, §4, §5, §6, §7, §8, §9, §10, §11, §12"}, "NADH oxidase [6]": {"tested_on": "NADH oxidase", "test": "NADH oxidase activity of CFK microsomes from infected cells", "details": "Plasma membrane-free CFK microsomes (Golgi-enriched) from infected cells"}, "[7]": {"tested_on": "HIV infected human MOLT-4 cells", "test": "differential killing of HIV infected cells", "format": "cell-based", "details": "FIGS. 8 and 9"}, "NADH oxidase [8]": {"tested_on": "NADH oxidase", "test": "NADH oxidase activity of rat liver cell fractions", "details": "for EC50: read-out: ED50, inhibition of NADH oxidase activity"}, "HeLa cells": {"tested_on": "HeLa cells", "test": "growth of HeLa cells under different redox poise", "format": "cell-based", "details": "10^−7 M, no drug 725", "procedure": "The reduced environment was obtained by addition of 100 μM cysteine and the oxidized environment by addition of 10 μM ter-butylhydroperoxide."}, "[9]": {"tested_on": "plasma membrane NADH oxidase (tNOX)"}}, "note": "Like-named read-outs stand apart in the source and are kept apart here.", "data": [{"molecule": "CC1=CC(=O)C(O)C2(C)C1CC1OC(=O)C(O)C3C(C)C(O)C4(O)OCC13C42", "note": "(stereo not shown) [Glaucarubolone, glaucarubolone]", "values": [{"measurement": "inhibition of NADH oxidation, in words", "setting": "NADH oxidase [1]", "result": "similarly inhibited"}, {"measurement": "effect on tomato plants, in words", "setting": "Tomato plants; 1:1000 and 1:10,000 dilutions in detergent solution, 30 days after treatment", "result": "still inhibited"}, {"measurement": "effect on tomato plants, in words", "setting": "Tomato plants; 100 Mm diluted 1:100 in 0.1% Triton X-100", "result": "did not grow and eventually died"}, {"measurement": "height of treated plants", "setting": "Sorghum (DeKalb 18)", "result": 12, "unit": "cm"}, {"measurement": "lowest concentrations at which inhibitions of germination were observed", "setting": "[2]; DMSO and ethanol dilutions 1:10^6 or 1:10^7, solvents themselves retarded germination", "result": "10-100 Nm"}, {"measurement": "concentration at which seed germination was inhibited", "setting": "[2]; all five species, water dilutions", "result": 10, "unit": "µM"}, {"measurement": "concentration at which seed germination was inhibited", "setting": "[2]; tomato, aqueous dilution 1:10,000", "result": 1, "unit": "µM"}, {"measurement": "solid tumor selectivity in vitro", "setting": "[3]", "result": "demonstrated solid tumor selectivity"}, {"measurement": "Cures", "setting": "[4]; C38, IV at MTD, cured/total mice", "result": "1/5"}, {"measurement": "in vivo activity against C38, in words", "setting": "[4]; mouse, in vivo", "result": "therapeutic activity"}, {"measurement": "MTD", "setting": "[5]", "result": 151, "unit": "mg/kg"}, {"measurement": "ED50, inhibition of NADH oxidase activity", "setting": "NADH oxidase [6]", "result": ">10^−8 M"}, {"measurement": "killing of HIV infected MOLT-4 cells compared to uninfected cells", "setting": "[7]", "result": "differentially killed at two log orders less"}, {"measurement": "inhibition of NADH oxidation, in words", "setting": "NADH oxidase [8]; isolated plasma membranes of liver cells, FIG. 10", "result": "inhibits NADH oxidation"}, {"measurement": "EC50", "setting": "NADH oxidase [8]; Rat liver golgi apparatus", "result": "> 10", "unit": "µM"}, {"measurement": "EC50", "setting": "NADH oxidase [8]; Rat liver microsomes", "result": "> 10", "unit": "µM"}, {"measurement": "EC50", "setting": "NADH oxidase [8]; Rat liver plasma membrane", "result": "> 10", "unit": "µM"}, {"measurement": "Growth HeLa cells after 72 h, Oxidized", "setting": "HeLa cells; 10 μM ter-butylhydroperoxide", "result": 500, "unit": "cells/mm^2"}, {"measurement": "Growth HeLa cells after 72 h, Reduced", "setting": "HeLa cells; 100 μM cysteine", "result": 700, "unit": "cells/mm^2"}, {"measurement": "Growth HeLa cells after 72 h, In situ", "setting": "HeLa cells", "result": 720, "unit": "cells/mm^2"}, {"measurement": "inhibition of NADH oxidation, in words", "setting": "[9]; HeLA (ATCC CCL2 strain), FIG. 10", "result": "inhibits NADH oxidation"}, {"measurement": "effect of redox poise on inhibition of NADH oxidase activity", "setting": "[9]; HeLa cell plasma membranes, FIG. 12", "result": "affected little by redox poise"}]}]}
